As usually defined, the IC50 is the concentration needed to halve the response being measured. Broadly, the Ki is the equilibrium dissociation constant of an inhibitor or competing ligand from its target.

Our source for the IC50 and Ki values is ChEMBL document CHEMBL5532678, “Comprehensive Insights that Targeting PIM for Cancer Therapy: Prospects and Obstacles” (J Med Chem, 2024).

SMILES strings stand for the structures. Where only a bound is given, the exact number is not on record here.

The test system of experiment [1] is HCT-116. Description: Antiproliferative activity against human HCT-116 cells assessed as inhibition of cell growth incubated for 72 hrs by celltiter-glo assay. The experiment is classed as functional, cell-based. The settings on record: HCT-116, 72 h.
Experiment [2] concerns the target T1, Serine/threonine-protein kinase pim-2 (Homo sapiens, UniProt Q9P1W9). Description: Inhibition of human PIM2 by ADP-Glo luminescent assay. Background: In ADP-Glo the light output rises with the ADP produced.
In experiment [3] the target is T2, Serine/threonine-protein kinase pim-1 (Homo sapiens, UniProt P11309). Description: Inhibition of human PIM1 by ADP Glo luminescent assay.
A further experiment deals with MV4-11. Description: Antiproliferative activity against human MV4-11 cells assessed as inhibition of cell growth incubated for 72 hrs by Celltiter-glo assay. The note with it: MV4-11, 72 h. It is filed as functional, cell-based.
Experiment [4] addresses T1, Serine/threonine-protein kinase pim-2. Description: Inhibition of human full length-His6 tagged PIM2 (1 to 311 residues) expressed in Escherichia coli BL21 (DE3) assessed as inhibition constant using RSRHSSYPAGT as peptide substrate incubated for 10 mins in presence of [gamma-32P]ATP by radiometric scintillation assay.
Experiment [5] deals with T2, Serine/threonine-protein kinase pim-1. Description: Inhibition of human full length-His6 tagged PIM1 (1 to 312 residues) expressed in Escherichia coli BL21 (DE3) using RSRHSSYPAGT as peptide substrate incubated for 10 mins in presence of [gamma-32P]ATP by radiometric scintillation assay.
For experiment [6], the target named is T1, Serine/threonine-protein kinase pim-2. Description: Binding affinity to PIM2 (unknown origin) assessed as inhibition constant.
The target of experiment [7] is T2, Serine/threonine-protein kinase pim-1. Description: Binding affinity to PIM1 (unknown origin) assessed as inhibition constant.
The subject of experiment [8] is HCT-116. Description: Antiproliferative activity against human HCT-116 cells assessed as inhibition of cell growth incubated for 24 hrs by MTT assay. The experiment is classed as functional, cell-based. The note with it: HCT-116, 24 h.
Experiment [9] deals with MCF7. Description: Antiproliferative activity against human MCF7 cells assessed as reduction in cell growth incubated for 48 hrs by MTT assay. It is filed as functional, cell-based. The settings on record: MCF7, 48 h. For orientation: Formazan colour is commonly taken as a measure of viable cells.
The target in experiment [10] is T2, Serine/threonine-protein kinase pim-1. Description: Inhibition of human PIM1 by discoverX kinome scan assay.
The nature of experiment [11]: Inhibition of PI3K (unknown origin). On the set-up: species or system Homo sapiens.
In experiment [12] the target is Serine/threonine-protein kinase mTOR (Homo sapiens, UniProt P42345). Description: Inhibition of mTOR (unknown origin).
Experiment [13] deals with T1, Serine/threonine-protein kinase pim-2. Description: Inhibition of PIM2 (unknown origin) by FRET based Z-LYTE kinase assay.
Experiment [14] concerns the target T2, Serine/threonine-protein kinase pim-1. Description: Inhibition of PIM1 (unknown origin) by FRET based Z-LYTE kinase assay.
For experiment [15], the target named is T3, Serine/threonine-protein kinase pim-3 (Homo sapiens, UniProt Q86V86). Description: Inhibition of PIM3 (unknown origin) by FRET based Z-LYTE kinase assay.
Experiment [16] deals with T2, Serine/threonine-protein kinase pim-1. Description: Inhibition of human recombinant PIM1.
The target in experiment [17] is T4, Prostaglandin G/H synthase 2 (Homo sapiens, UniProt P35354).
T4 sequence (P35354 whole entry): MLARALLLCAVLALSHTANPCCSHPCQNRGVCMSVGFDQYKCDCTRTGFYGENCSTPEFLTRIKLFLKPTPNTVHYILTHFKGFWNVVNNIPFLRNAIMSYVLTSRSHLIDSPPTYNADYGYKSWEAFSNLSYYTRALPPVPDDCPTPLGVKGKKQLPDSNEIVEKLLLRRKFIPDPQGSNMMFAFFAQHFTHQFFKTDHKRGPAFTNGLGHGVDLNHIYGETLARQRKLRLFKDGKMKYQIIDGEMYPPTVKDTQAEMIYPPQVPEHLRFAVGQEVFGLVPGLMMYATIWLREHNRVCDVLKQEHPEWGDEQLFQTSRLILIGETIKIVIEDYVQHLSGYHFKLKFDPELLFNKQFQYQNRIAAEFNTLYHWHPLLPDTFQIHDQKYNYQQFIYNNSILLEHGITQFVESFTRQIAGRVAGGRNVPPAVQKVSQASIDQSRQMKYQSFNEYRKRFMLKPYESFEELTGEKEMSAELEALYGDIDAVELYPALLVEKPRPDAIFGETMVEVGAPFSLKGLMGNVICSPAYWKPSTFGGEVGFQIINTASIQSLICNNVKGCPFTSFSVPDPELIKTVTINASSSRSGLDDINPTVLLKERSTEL
Description: Inhibition of COX2 (unknown origin) fluorescence based analysis.

Experiment [18] addresses T1, Serine/threonine-protein kinase pim-2. Description: Inhibition of N-terminal GST-tagged full length human PIM2 (1 to 311 residues) expressed in baculovirus expression system using S6K2 peptide as substrate at 1 uM in presence of ATP by Mobility shift assay.
For experiment [19], the target named is T5, Polyunsaturated fatty acid 5-lipoxygenase (Homo sapiens, UniProt P09917).
T5 sequence (P09917 whole entry): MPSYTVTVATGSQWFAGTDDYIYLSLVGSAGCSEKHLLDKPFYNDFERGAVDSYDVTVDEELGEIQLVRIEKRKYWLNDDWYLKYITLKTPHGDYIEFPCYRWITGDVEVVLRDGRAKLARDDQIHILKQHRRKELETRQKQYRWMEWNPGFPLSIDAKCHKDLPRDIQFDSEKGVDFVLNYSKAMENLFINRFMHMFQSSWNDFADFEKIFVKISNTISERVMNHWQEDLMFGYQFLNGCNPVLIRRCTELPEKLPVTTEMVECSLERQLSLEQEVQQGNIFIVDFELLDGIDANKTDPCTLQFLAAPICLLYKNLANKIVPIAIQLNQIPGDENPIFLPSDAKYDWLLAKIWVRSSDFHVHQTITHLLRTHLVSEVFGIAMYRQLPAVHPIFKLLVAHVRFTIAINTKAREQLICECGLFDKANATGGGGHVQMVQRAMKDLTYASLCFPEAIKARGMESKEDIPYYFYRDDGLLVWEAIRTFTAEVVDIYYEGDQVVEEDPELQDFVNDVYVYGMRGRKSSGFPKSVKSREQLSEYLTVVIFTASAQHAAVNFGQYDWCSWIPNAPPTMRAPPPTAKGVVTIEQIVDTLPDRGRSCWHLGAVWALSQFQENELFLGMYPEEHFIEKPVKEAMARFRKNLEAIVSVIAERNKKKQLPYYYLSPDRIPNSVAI
Description: Inhibition of 5-LOX in human PMNL cells. The experiment is classed as cell-based.

Experiment [20] addresses Prostaglandin G/H synthase 1 (Homo sapiens, UniProt P23219). Description: Inhibition of COX1 (unknown origin) fluorescence based analysis.
The target in experiment [21] is T2, Serine/threonine-protein kinase pim-1. Description: Inhibition of human PIM1 using KKRNRTLTK as substrate in presence of [gamma-33P]-ATP by hotspot kinase assay.
For experiment [22], the target named is T3, Serine/threonine-protein kinase pim-3. Description: Inhibition of N-terminal GST-tagged full length human PIM3 (1 to 326 residues) expressed in baculovirus expression system using S6K2 peptide as substrate at 1 uM in presence of ATP by Mobility shift assay.
In experiment [23] the test system is MCF7. Description: Cytotoxicity against human MCF7 cells assessed as reduction in cell viability by MTT assay. The experiment is classed as functional, cell-based.

On to `Cc1nc2cccc3c2nc1N[C@H](C)/C=C\C[C@H]1CNC(=O)c2cc-3[nH]c21`, for which the 50% inhibitory concentration (IC50) in the experiment with HCT-116 [1] worked out at 45300 nM; in experiment [2] it was 500 nM; in experiment [3], 130 nM; in the experiment with MV4-11, 35500 nM.
With `Cc1cccc(-c2c(-c3cccc(OC(F)(F)F)c3)cc3n2[C@@H](CCN)CNC3=O)c1`, the half-maximal inhibitory concentration (IC50) in [4] turned out to be 25000 nM; in experiment [5], 7 nM.
On to `CC(C)(C)Nc1nnc(-c2ccc3[nH]cc(-c4nccc(C5CC5)n4)c3c2)o1`, for which the Ki was determined as 0.28 nM in experiment [6] and 0.55 nM in [7].
In the case of `COc1cc(C2NC(=O)c3sc4nc(C)c(Br)c(C)c4c3N2)ccc1O` (stereo not given), the concentration for half-maximal inhibition (IC50) amounted to 360 nM in the experiment on HCT-116 [8] and 460 nM with MCF7 [9].
As to `Cc1nc2sc3c(c2c(C)c1Br)NC(c1ccc(O)c(O)c1)NC3=O` (stereo not given), the 50% inhibitory concentration (IC50) in the experiment on HCT-116 [8] was determined as 370 nM; in the experiment with MCF7 [9] it was 220 nM.
On to `N#Cc1nnc2c3c(-c4ccccc4Cl)c(C#N)c(=O)[nH]c3nn2c1N`, for which, in experiment [10], the IC50 turned out to be 43000 nM.
On to `COc1ncc2cc1NS(=O)(=O)c1cccc(c1)C(=O)NCc1cccc(c1)-c1ncnc3c1SC2=C3`, for which the IC50 is 16.8 nM in [11] and over 10000 nM in experiment [12].
The like results for `COc1ncc2cc1NS(=O)(=O)c1ccc(F)c(c1)C(=O)NCC1=CC=C(S1)c1ncnc3c1SC2=C3C` were, in that order, 0.13 nM and 74500 nM.
Regarding `CCOc1cc(/C=C2\SC(=S)NC2=O)ccc1O`, the half-inhibitory concentration (IC50) in experiment [13] amounted to 310 nM; in [14], 420 nM; in [15], 170 nM.
As to `CN1CCN(c2ccc(-n3cnc4ccc(/C=C5\SC(=S)NC5=O)cc43)cc2)CC1`, the IC50 is 16000 nM in experiment [13], 16000 nM in experiment [14] and 6400 nM in experiment [15].
Take `Cc1ccc(C(C)C)c(O)c1/C=N/N=C1/SC(CC(=O)O)C(=O)N1c1cccc2ccccc12` (stereo not given): the IC50 in experiment [16] was 4090 nM; in [17], 9110 nM; in experiment [18], 1740 nM; in [19], 3160 nM; in experiment [20], 200 nM.
With `CN1CCN(C[C@@H](NC(=O)CC2CNC(=O)c3cc(-c4cccc(Cl)c4)cn32)C2CCCCC2)CC1` (stereo not given in full), in [5], the IC50 was determined as 1.5 nM.
`N#Cc1c(-c2ccccc2)cc(-c2ccccc2)nc1OCC(=O)NO`: the IC50 in [21] was found to be 427 nM.
Take `COc1ccc(/C=C/C(/C=C2/C(=O)Nc3cc(Br)ccc32)=N/O)cc1`: the concentration for half-maximal inhibition (IC50) in [22] was 360 nM; in [4] it was 220 nM; in [5], 470 nM.
As for `COc1ccc(N2CCN(C(=O)c3sc4nc(C)c(Br)c(C)c4c3N)CC2)cc1`, the IC50 in experiment [10] is 12700 nM; with MCF7 [23], 107000 nM.
In the case of `COc1ccc(N2C(=O)C(CC(=O)O)S/C2=N/N=C/c2c(C)ccc(C(C)C)c2O)cc1` (stereo not given), the IC50 in experiment [16] stood at 7210 nM; in experiment [17] it was 37 nM; in experiment [18], 976 nM; in [19] it was 2810 nM; in experiment [20], 14000 nM.
